Results on 16 molecules are retold here after ChEMBL document CHEMBL3779881, “Property Focused Structure-Based Optimization of Small Molecule Inhibitors of the Protein-Protein Interaction between Menin and Mixed Lineage Leukemia (MLL)” (J Med Chem, 2016).

Data set [1] in a line: Growth inhibition of Hoxa9/Meis1 transformed mouse bone marrow cells after 7 days by MTT assay. Type of data set: functional. As to conditions: Bone marrow cell, 168 h.
Data set [2] has as its target Menin/Histone-lysine N-methyltransferase MLL (Homo sapiens, UniProt O00255). Put plainly: Inhibition of menin-MLL interaction (unknown origin) after 1 hr by fluorescence polarization assay. Format: protein assay. A general note: Fluorescence polarisation rises when a labelled molecule tumbles more slowly, as on binding a larger partner.
Data set [3] is described as follows: Growth inhibition of MLL-AF9 transformed mouse bone marrow cells after 7 days by MTT assay. Type of data set: functional. As to conditions: Bone marrow cell, 168 h. (Tetrazolium dyes change colour on reduction, which living cells bring about.)
Data set [4] concerns Bone marrow cell. The data set is described as follows: Selectivity index, ratio of GI50 for Hoxa9/Meis1 transformed mouse bone marrow cells to GI50 for MLL-AF9 transformed mouse bone marrow cells. Type of data set: functional.
Data set [5] can be described thus: Half life in CD-1 mouse liver microsomes at 1 uM after 3 to 60 mins by LC-MS/MS analysis. Format: ADME. (In general: Liver microsomes are a subcellular fraction often used to study metabolism.)

Menin/Histone-lysine N-methyltransferase MLL, sequence (O00255 whole entry): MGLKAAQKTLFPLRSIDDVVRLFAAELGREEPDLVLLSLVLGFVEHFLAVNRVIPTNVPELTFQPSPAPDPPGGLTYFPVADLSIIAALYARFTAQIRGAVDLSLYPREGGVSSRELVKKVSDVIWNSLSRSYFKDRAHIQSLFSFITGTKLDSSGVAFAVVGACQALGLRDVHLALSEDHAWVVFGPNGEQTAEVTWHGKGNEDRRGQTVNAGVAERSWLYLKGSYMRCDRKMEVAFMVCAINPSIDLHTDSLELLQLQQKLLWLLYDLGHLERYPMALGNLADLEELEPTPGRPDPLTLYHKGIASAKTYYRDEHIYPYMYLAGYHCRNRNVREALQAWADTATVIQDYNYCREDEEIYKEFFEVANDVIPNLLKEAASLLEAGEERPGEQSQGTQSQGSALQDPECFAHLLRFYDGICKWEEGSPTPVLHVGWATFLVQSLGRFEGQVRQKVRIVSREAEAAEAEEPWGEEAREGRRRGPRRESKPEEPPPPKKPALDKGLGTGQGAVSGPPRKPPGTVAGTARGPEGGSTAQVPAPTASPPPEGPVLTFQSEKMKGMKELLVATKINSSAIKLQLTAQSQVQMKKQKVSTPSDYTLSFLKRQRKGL
Menin/Histone-lysine N-methyltransferase MLL, sequence (Q03164 1-2718 partner limits assumed): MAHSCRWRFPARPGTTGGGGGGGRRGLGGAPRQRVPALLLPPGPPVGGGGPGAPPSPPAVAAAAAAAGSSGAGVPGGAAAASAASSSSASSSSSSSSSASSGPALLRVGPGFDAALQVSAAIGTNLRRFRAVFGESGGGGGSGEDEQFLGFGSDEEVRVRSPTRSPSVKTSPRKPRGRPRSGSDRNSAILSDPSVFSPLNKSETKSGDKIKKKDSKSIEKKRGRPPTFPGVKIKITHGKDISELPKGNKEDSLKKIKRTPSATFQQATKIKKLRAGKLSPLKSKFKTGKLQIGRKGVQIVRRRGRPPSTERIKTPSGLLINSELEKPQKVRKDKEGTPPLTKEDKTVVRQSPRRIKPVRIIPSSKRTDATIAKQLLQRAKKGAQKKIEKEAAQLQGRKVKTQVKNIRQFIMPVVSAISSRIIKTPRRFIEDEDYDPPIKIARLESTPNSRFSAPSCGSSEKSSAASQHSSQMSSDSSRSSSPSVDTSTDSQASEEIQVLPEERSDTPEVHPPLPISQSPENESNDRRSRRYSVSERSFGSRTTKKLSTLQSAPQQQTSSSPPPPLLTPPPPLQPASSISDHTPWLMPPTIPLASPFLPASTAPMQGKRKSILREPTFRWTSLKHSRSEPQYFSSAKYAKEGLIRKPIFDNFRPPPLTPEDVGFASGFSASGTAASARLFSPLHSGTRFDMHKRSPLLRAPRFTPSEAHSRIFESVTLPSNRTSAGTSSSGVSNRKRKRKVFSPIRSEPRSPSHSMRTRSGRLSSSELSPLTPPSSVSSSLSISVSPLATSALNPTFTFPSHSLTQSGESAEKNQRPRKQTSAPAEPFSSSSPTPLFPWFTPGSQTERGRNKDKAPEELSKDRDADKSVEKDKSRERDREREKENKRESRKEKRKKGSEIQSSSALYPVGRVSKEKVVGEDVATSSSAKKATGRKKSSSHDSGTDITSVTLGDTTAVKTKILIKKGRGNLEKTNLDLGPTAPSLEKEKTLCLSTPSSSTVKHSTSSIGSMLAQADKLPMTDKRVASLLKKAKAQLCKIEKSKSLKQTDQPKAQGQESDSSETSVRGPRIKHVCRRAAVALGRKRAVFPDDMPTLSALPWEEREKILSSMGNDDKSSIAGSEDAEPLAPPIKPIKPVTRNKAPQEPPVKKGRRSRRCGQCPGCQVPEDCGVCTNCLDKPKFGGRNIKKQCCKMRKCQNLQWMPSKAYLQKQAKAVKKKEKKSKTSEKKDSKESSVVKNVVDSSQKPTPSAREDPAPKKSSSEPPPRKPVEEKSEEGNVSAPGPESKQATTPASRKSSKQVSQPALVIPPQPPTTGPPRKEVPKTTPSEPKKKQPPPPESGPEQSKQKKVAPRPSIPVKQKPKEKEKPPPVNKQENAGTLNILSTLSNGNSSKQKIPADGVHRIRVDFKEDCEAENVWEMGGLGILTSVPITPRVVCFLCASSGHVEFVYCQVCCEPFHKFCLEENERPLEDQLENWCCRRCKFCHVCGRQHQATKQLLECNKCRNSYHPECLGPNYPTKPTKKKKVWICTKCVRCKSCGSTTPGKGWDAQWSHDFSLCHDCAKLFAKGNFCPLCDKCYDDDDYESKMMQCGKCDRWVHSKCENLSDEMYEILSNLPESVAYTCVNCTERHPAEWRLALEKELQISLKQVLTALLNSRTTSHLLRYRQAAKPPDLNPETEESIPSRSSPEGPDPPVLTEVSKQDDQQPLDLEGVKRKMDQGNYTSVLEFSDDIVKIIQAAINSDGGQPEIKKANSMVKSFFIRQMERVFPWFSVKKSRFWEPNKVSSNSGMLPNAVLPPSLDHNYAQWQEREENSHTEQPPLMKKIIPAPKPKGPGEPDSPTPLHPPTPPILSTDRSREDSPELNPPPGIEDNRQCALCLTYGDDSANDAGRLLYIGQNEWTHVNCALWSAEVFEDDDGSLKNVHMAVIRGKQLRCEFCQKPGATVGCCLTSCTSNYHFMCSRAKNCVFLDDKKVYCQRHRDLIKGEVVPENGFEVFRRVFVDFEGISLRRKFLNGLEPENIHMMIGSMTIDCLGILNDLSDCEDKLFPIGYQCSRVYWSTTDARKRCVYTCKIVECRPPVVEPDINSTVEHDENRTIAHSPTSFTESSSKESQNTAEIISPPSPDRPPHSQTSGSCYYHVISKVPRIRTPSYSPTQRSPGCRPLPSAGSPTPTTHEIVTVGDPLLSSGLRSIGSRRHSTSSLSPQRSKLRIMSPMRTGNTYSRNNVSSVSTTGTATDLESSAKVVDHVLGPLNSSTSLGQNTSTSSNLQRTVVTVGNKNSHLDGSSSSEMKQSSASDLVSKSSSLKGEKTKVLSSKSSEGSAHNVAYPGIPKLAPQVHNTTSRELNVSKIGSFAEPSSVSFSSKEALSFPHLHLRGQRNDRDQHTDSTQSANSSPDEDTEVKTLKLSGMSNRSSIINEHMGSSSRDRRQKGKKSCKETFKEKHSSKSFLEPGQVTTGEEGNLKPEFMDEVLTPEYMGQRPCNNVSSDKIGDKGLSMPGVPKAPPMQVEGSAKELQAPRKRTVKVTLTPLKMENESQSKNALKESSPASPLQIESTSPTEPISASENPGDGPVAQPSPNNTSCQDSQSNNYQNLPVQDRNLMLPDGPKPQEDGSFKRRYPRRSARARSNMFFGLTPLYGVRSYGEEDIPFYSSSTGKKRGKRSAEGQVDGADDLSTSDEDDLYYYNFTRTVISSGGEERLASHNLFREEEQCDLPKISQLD
Menin/Histone-lysine N-methyltransferase MLL, sequence (Q03164 2719-3969 partner limits assumed): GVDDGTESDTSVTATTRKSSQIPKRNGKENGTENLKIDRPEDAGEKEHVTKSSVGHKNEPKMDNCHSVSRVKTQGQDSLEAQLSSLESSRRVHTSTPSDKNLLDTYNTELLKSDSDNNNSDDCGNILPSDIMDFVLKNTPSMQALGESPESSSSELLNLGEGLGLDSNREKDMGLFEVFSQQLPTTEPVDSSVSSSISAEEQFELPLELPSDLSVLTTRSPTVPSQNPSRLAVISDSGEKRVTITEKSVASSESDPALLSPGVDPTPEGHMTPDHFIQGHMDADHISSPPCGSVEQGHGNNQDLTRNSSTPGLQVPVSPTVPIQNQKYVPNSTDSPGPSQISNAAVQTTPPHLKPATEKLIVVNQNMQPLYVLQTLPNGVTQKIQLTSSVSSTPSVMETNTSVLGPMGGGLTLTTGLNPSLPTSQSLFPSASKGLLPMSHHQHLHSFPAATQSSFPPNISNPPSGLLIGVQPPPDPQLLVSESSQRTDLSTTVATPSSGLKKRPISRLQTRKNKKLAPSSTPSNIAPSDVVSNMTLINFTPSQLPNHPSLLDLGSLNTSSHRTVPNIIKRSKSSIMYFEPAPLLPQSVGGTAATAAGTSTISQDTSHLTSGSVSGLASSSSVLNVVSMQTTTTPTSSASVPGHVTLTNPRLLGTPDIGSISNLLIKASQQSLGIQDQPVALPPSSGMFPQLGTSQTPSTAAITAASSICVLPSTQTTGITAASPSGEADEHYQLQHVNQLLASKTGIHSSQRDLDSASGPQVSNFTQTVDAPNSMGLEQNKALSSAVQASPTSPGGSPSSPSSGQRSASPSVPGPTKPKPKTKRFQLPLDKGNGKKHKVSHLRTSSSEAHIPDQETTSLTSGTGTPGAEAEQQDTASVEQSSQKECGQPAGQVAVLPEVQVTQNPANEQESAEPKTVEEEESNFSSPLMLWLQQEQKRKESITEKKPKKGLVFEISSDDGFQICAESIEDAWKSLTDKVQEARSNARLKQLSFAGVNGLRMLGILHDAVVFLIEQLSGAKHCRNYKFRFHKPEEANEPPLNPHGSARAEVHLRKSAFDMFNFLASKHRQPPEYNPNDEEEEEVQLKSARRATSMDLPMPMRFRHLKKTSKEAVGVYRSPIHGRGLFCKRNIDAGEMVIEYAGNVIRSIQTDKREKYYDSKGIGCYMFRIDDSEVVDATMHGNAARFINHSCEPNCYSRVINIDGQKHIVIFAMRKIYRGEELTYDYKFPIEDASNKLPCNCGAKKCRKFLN

The GI50 is the concentration giving 50% growth inhibition. A lower GI50 goes with more potent growth inhibition. In general, IC50 refers to the midpoint of a concentration-inhibition curve. `COc1cc2c(cc(C#N)n2CCO)c(C)c1CN1CCC(Nc2ncnc3sc(CC(F)(F)F)cc23)CC1`: the GI50 in data set [1] was determined as 15000 nM; in data set [3], 360 nM. In addition, in data set [2], the IC50 was determined as 16 nM. Moreover, the RatioGI50 in data set [4] was determined as 69. This molecule also registered a t1/2 in data set [5] of 7.8 min.
For `N#Cc1cc2cc(CN3CCC(Nc4ncnc5sc(CC(F)(F)F)cc45)CC3)ccc2n1Cc1c[nH]nn1`, in that order: 10000 nM, 330 nM, 27 nM, 30 and 11 min.
For the molecule `N#Cc1cc2cc(CN3CCC(Nc4ncnc5sc(CC(F)(F)F)cc45)CC3)ccc2n1CCO`, the values for the GI50 in data set [1] and in data set [3] were 6200 nM and 1100 nM, respectively. In data set [2], this molecule came in with an IC50 of 35 nM. Further, the RatioGI50 in data set [4] was found to be 5.6. The t1/2 in data set [5] stood at 18 min.
Regarding `CO[C@H](CO)Cn1c(C#N)cc2cc(CN3CCC(Nc4ncnc5sc(CC(F)(F)F)cc45)CC3)ccc21`, the values for the GI50 in data set [1] and in data set [3] were 6900 nM and 660 nM, respectively. Moreover, in data set [2], 37 nM corresponded to half-maximal inhibition (IC50). Besides, the RatioGI50 in data set [4] came to 11. Further, the t1/2 in data set [5] was 5.2 min.
The matching figures for `N#Cc1cc2cc(CN3CCC(Nc4ncnc5sc(CC(F)(F)F)cc45)CC3)ccc2n1C[C@@H](O)CO`: above 40000 nM, 1700 nM, 46 nM, above 24 and 48 min.
For `Cc1c(CN2CCC(Nc3ncnc4sc(CC(F)(F)F)cc34)CC2)c(O)cc2c1cc(C#N)n2Cc1cn[nH]c1`, the GI50 in data set [1] worked out at 13000 nM; in data set [3], 270 nM. Moreover, half-maximal inhibition in data set [2] (IC50) was put at 18 nM. In data set [4], the RatioGI50 is 48. The molecule also gave a t1/2 in data set [5] of 25 min.
As for `CC(C(N)=O)n1c(C#N)cc2cc(CN3CCC(Nc4ncnc5sc(CC(F)(F)F)cc45)CC3)ccc21` (stereo not drawn), in data set [2], half-maximal inhibition (IC50) was put at 244 nM. In other words, the sub-micromolar range.
In the case of `Cc1c(CN2CCC(Nc3ncnc4sc(CC(F)(F)F)cc34)CC2)ccc2[nH]c(C#N)cc12`, the GI50 amounted to 5600 nM in data set [1] and 200 nM in data set [3].
Take `N#Cc1cc2cc(CN3CCC(Nc4ncnc5sc(CC(F)(F)F)cc45)CC3)ccc2n1Cc1cn[nH]c1`: the figures for the 50% growth inhibitory concentration (GI50) in data set [1] and in data set [3] were 6900 nM and 260 nM, respectively. The molecule also gave an IC50 in data set [2] of 23 nM. Moreover, the RatioGI50 in data set [4] is given as 27. The t1/2 in data set [5] is 8.3 min.
`COCC(O)Cn1c(C#N)cc2cc(CN3CCC(Nc4ncnc5sc(CC(F)(F)F)cc45)CC3)ccc21` (stereo not drawn) returned an IC50 in data set [2] of 101 nM. This molecule also registered a GI50 in data set [3] of 2100 nM. In data set [5], the t1/2 is below 3 min.
Take `COc1cc2[nH]c(C#N)cc2cc1CN1CCC(Nc2ncnc3sc(CC(F)(F)F)cc23)CC1`: the GI50 was 16000 nM in data set [1] and 340 nM in data set [3]. Also, the IC50 in data set [2] amounted to 22 nM. The RatioGI50 in data set [4] came to 47. The same molecule displayed a t1/2 in data set [5] of 3.7 min.
For `Cc1c(CN2CCC(Nc3ncnc4sc(CC(F)(F)F)cc34)CC2)c(O)cc2c1cc(C#N)n2Cc1c[nH]nn1`, in that order: 10000 nM, 420 nM, 17 nM, 24 and 25 min.
In data set [2], `N#Cc1cc2cc(CN3CCC(Nc4ncnc5sc(CC(F)(F)F)cc45)CC3)ccc2n1C[C@H](O)CO` displayed an IC50 of 42 nM. The molecule also showed a GI50 in data set [3] of 3800 nM. The t1/2 in data set [5] is above 60 min.
With `N#Cc1[nH]c2ccc(CN3CCC(Nc4ncnc5sc(CC(F)(F)F)cc45)CC3)cc2c1N`, half-maximal inhibition in data set [2] (IC50) was put at 124 nM. For the same molecule, the GI50 in data set [3] came to 5200 nM. Besides, the t1/2 in data set [5] turned out to be 27 min.
For `Cc1c(C#N)[nH]c2ccc(CN3CCC(Nc4ncnc5sc(CC(F)(F)F)cc45)CC3)cc12`, in that order: 111 nM, 2600 nM and 4.8 min.
Consider `N#Cc1[nH]c2ccc(CN3CCC(Nc4ncnc5sc(CC(F)(F)F)cc45)CC3)cc2c1F`, for which the IC50 in data set [2] is 96 nM. This molecule also had a GI50 in data set [3] of 1700 nM. Also, the t1/2 in data set [5] came to 5.7 min.
